Laboratory results: US12673951B2, “Substituted pyrazoloquinazolinone compounds and application thereof” (IMPACT THERAPEUTICS (SHANGHAI), INC, priority 2019, dated 2026)
Where two headings read alike, the source gives them in different places.

Experiments:
ATM enzyme = target: T1, ATM enzyme (Homo sapiens, UniProt Q13315); test: ATM kinase assay (HTRF); type: biochemical; conditions: for inhibition at 1 µM / inhibition at 10 µM / inhibition at 100 µM / inhibition at 0.1 µM: 0.5 h, read-out: Inh (%) ATM kinase inhibition rate; for inhibition at 0.1 µM: C 0.1 μm
T1 construct: purchased Eurofins 14-933
Experimental: The mixture was centrifuged at 1000 rpm for 1 minute, and reacted at room temperature away from light for 30 minutes. Then 5 μL of EDTA stop solution (250 mM) was added to stop the reaction. After 5 μL of detection mixture (Anti-phospho-p53 (ser15)-K (Cisbio, #61P08KAE, 0.084 ng/μL) and Anti-GST-d2 (Cisbio, #61GSTDLA, 5.00 ng/μL)) was finally added to each well, then incubate the plate overnight at room temperature.
Relative fluorescence ratio was calculated: Ratio665 nm/615 nm-Ratiobackground, and inhibition rate %=(1−(relative fluorescence ratio of test compound well−relative fluorescence ratio of positive control well)/(relative fluorescence ratio of negative control well−relative fluorescence ratio of positive control well))×100 was calculated. Data were analyzed using GraphPad Prism6.0, and fitted using the curve equation: Y=Bottom+(Top−Bottom)/(1+10^((Log IC50−X)×HillSlope)) and IC50 values were calculated.

[1] = tested on: human colon cancer cell SW620; test: MTT assay, growth of SW620 cells, compounds combined with CPT-11; type: cell-based; conditions: read-out: IC50, growth of SW620 combined with CPT-11
Experimental: The cells were seeded into 96-well cell culture plate with appropriate cell density and incubated overnight in a 37° C. 5% CO2 incubator. […] 5 μL of each concentration was added to 120 μL of medium (25 times diluted) and mixed by shaking. […] After removing the original solution, 100 μL of fresh serum-free DMEM medium containing MTT (0.5 mg/mL) was added to each well, the culture was continued. […] GraphPad Prism 6.0 was used to analyze the data. The inhibitory activity of compounds on cell proliferation was plotted based on cell viability and compound concentration.

[2] = tested on: human breast cancer cell MDA-MB-468; test: MTT assay, growth of MDA-MB-468 cells; type: cell-based; conditions: read-out: IC50, growth of MDA-MB-468
Experimental: The cells were seeded into 96-well cell culture plate with appropriate cell density and incubated overnight in a 37° C. 5% CO2 incubator. […] 5 μL of each concentration was added to 120 μL of medium (25 times diluted) and mixed by shaking. The overnight cells were taken and the culture medium was removed, 195 μL of fresh medium was added to each well, and 5 μL of diluted medium containing the corresponding concentration of the tested sample was added, respectively, and the culture plate was then placed in the 5% CO2 cell culture incubator at 37° C. for 7 days (On the fourth day, the medium containing drugs was removed and fresh medium containing drugs was added for continuous cultivation.). After removing the original solution, 100 μL of fresh serum-free DMEM medium containing MTT (0.5 mg/mL) was added to each well, the culture was continued. […] GraphPad Prism 6.0 was used to analyze the data. The inhibitory activity of compounds on cell proliferation was plotted based on cell viability and compound concentration.

[3] = Homo sapiens, SW-620, 120 h, SW620 cells, medium containing 205 nM CPT-11, 5 days, MTT
[4] = Homo sapiens, 168 h, MDA-MB-468 cells, 7 days, MTT
[5] = Homo sapiens, MDA-MB-468, 168 h

T1 sequence (Q13315 whole entry): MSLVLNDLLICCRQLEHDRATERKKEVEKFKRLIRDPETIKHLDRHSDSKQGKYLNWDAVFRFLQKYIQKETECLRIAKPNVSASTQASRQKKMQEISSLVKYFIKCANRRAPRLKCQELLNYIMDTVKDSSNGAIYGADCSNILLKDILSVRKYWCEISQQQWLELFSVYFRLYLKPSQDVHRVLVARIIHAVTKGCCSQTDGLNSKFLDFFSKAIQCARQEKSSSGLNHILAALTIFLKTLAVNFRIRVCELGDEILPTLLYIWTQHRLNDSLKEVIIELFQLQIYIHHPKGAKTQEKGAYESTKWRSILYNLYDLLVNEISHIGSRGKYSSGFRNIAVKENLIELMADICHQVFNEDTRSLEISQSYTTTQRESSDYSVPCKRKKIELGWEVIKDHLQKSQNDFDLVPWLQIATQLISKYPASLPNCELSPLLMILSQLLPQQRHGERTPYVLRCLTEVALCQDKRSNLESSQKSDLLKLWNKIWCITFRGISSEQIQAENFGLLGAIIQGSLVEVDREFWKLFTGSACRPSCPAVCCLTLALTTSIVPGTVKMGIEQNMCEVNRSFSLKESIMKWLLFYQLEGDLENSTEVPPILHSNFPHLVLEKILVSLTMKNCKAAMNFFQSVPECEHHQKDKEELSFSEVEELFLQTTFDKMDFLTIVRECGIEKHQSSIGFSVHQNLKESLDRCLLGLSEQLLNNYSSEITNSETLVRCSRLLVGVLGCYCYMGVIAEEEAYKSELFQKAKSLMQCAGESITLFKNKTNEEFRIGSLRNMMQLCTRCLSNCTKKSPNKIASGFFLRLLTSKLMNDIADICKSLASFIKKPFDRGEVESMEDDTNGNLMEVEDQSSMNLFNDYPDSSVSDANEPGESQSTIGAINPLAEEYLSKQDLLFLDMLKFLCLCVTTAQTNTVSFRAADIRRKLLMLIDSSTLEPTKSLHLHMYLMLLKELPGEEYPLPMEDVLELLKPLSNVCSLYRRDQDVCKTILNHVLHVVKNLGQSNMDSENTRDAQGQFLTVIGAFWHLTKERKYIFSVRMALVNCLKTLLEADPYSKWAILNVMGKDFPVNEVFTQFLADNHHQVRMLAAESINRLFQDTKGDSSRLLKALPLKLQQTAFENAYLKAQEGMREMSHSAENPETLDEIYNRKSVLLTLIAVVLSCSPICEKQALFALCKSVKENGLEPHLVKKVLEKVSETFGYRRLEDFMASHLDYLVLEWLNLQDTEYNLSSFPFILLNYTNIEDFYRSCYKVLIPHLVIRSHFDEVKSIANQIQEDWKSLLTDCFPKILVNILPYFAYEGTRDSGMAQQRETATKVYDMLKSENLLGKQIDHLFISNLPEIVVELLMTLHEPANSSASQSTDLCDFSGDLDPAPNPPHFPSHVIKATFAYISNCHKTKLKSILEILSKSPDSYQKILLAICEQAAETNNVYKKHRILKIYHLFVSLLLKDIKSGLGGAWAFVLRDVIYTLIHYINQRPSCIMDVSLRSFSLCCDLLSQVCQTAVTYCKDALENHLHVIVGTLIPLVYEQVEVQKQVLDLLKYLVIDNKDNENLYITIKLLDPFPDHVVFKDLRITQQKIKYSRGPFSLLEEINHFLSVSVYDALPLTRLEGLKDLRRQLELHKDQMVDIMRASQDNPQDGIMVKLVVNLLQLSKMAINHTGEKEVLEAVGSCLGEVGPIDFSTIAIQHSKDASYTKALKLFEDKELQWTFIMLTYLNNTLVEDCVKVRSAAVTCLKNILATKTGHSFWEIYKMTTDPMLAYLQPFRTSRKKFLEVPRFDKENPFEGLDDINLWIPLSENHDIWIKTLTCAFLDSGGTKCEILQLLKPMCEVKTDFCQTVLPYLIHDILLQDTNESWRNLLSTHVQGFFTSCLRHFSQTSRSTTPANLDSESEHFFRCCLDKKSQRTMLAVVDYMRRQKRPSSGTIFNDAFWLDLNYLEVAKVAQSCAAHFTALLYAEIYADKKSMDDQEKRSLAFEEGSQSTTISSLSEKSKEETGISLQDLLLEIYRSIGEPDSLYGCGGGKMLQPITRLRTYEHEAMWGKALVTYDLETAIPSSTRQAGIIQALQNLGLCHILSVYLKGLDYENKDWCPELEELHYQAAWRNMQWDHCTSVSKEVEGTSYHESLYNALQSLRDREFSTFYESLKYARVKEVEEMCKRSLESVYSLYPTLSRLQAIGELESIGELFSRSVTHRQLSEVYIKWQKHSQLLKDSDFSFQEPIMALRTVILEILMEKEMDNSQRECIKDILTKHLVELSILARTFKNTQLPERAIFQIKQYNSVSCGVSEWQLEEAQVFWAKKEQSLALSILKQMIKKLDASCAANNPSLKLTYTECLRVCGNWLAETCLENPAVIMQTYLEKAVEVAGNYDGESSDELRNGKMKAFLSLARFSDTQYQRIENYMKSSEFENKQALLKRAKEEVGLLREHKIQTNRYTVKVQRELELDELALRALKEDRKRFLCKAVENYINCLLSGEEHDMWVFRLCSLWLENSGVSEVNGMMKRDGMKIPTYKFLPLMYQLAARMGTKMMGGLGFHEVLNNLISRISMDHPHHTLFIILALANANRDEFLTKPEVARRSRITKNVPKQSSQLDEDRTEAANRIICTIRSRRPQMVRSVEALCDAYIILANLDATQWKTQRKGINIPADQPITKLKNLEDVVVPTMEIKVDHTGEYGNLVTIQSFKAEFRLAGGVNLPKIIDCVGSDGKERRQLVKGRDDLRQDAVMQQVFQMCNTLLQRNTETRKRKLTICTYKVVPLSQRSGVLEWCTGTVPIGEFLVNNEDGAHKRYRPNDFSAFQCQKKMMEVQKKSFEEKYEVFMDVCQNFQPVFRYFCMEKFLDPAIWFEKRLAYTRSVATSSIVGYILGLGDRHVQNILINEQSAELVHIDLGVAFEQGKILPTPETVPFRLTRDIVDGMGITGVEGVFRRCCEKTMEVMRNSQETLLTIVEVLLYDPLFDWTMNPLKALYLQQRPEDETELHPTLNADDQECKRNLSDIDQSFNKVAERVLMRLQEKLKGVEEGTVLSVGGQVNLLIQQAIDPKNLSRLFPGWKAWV

SMILES | inhibition at 1 µM (ATM enzyme; C 1 μm) | inhibition at 10 µM (ATM enzyme; C 10 μm) | IC50 [1, 3] | IC50 [2, 4] | inhibition at 0.1 µM (ATM enzyme) | IC50 ([1]; Homo sapiens, SW-620, 120 h) | IC50 [2, 5] | also measured
CN(C)CCCOc1ccc(-c2ccc3ncc4c(c3c2)n(C2CCOCC2)c(=O)n4C)cn1 [AZD0156, reference compound] | – | – | – | – | – | – | – | Inh (%) ATM kinase inhibition rate (ATM enzyme; C 1 μm): 90%; Inh (%) ATM kinase inhibition rate (ATM enzyme; C 10 μm): 95%; Inh (%) ATM kinase inhibition rate (ATM enzyme; C 100 μm): 100%; IC50 ([1]; SW620 cells, medium containing 205 nM CPT-11, 5 days, MTT): 9.77 nM; IC50 ([2]; MDA-MB-468 cells, 7 days, MTT): 9.87 nM
CN(C)CCCOc1ccc(-c2ccc3ncn4c(c(C5CCOCC5)c(=O)n4C)c3c2)cc1C(F)(F)F [Example 5, 9-(4-(3-(dimethylamino)propoxy)-3-(trifluoromethyl)phenyl)-3-methyl-1-(tetrahydro-2H-pyran-4-yl)pyrazolo[1,5-c]quinazolin-2(3H)-one] | 93% | 100% | 1.52 nM | 2.38 nM | 61% | – | – | –
CN(C)C1CCN(c2ccc(-c3ccc4ncn5c(c(C6CCOCC6)c(=O)n5C)c4c3)cc2C(F)(F)F)CC1 [Example 8, 9-(4-(4-(dimethylamino)piperidin-1-yl)-3-(trifluoromethyl)phenyl)-3-methyl-1-(tetrahydro-2H-pyran-4-yl)pyrazolo[1,5-c]quinazolin-2(3H)-one] | 99% | 100% | 2.1 nM | 2.65 nM | 86% | – | – | –
CCNC1CCN(c2ccc(-c3ccc4ncn5c(c(C6CCOCC6)c(=O)n5C)c4c3)cc2C(F)(F)F)CC1 [Example 11, 9-(4-(4-(ethylamino)piperidin-1-yl)-3-(trifluoromethyl)phenyl)-3-methyl-1-(tetrahydro-2H-pyran-4-yl)pyrazolo[1,5-c]quinazolin-2(3H)-one] | 95% | 100% | 4.82 nM | 3.55 nM | 66% | – | – | –
CC(C)c1c(=O)n(C)n2cnc3ccc(-c4ccc(N5CCC(N(C)C)CC5)c(Cl)c4)cc3c12 [Example 22, 9-(3-chloro-4-(4-(dimethylamino)piperidin-1-yl)phenyl)-1-isopropyl-3-methylpyrazolo[1,5-c]quinazolin-2(3H)-one] | – | – | – | – | – | 26.1 nM | 22.9 nM | –
CC(C)c1c(=O)n(C)n2cnc3ccc(-c4ccc(N5CCC(N(C)C)CC5)c(C(F)(F)F)c4)cc3c12 [Example 23, 9-(4-(4-(dimethylamino)piperidin-1-yl)-3-(trifluoromethyl)phenyl)-1-isopropyl-3-methylpyrazolo[1,5-c]quinazolin-2(3H)-one] | – | – | – | – | – | 8.49 nM | 6.76 nM | –
CC(C)c1c(=O)n(C)n2cnc3ccc(-c4ccc(OCCCN(C)C)c(C(F)(F)F)c4)cc3c12 [Example 25, 9-(4-(3-(dimethylamino)propoxy)-3-(trifluoromethyl)phenyl)-1-isopropyl-3-methylpyrazolo[1,5-c]quinazolin-2(3H)-one] | – | – | – | – | – | 13.4 nM | 13.5 nM | –
CCn1c(=O)c(C2CCOCC2)c2c3cc(-c4ccc(OCCCN(C)C)nc4)ccc3ncn21 [Example 26, 9-(6-(3-(dimethylamino)propoxy)pyridin-3-yl)-3-ethyl-1-(tetrahydro-2H-pyran-4-yl)pyrazolo[1,5-c]quinazolin-2(3H)-one] | 66.5% | – | 142 nM | 123 nM | – | – | – | –

Further lines, with some results ahead:

inhibition at 1 µM (ATM enzyme; C 1 μm) | inhibition at 10 µM (ATM enzyme; C 10 μm) | IC50 [1, 3] | IC50 [2, 4] | inhibition at 0.1 µM (ATM enzyme) | IC50 ([1]; Homo sapiens, SW-620, 120 h) | IC50 [2, 5] | SMILES | also measured
0% | 23% | > 1000 nM | 231 nM | – | – | – | CN(C)CCCOc1ccc(-c2ccc3ncn4[nH]c(=O)c(C5CCOCC5)c4c3c2)cn1 [Example 1, 9-(6-(3-(dimethylamino)propoxy)pyridin-3-yl)-1-(tetrahydro-2H-pyran-4-yl)pyrazolo[1,5-c]quinazolin-2(3H)-one] | inhibition at 100 µM (ATM enzyme; C 100 μm): 69%
87% | 96% | 9.8 nM | 9.5 nM | – | – | – | CN(C)CCCOc1ccc(-c2ccc3ncn4c(c(C5CCOCC5)c(=O)n4C)c3c2)cn1 [Example 2, 9-(6-(3-(dimethylamino)propoxy)pyridin-3-yl)-3-methyl-1-(tetrahydro-2H-pyran-4-yl)pyrazolo[1,5-c]quinazolin-2(3H)-one] | inhibition at 100 µM (ATM enzyme; C 100 μm): 100%
93% | 98% | 6.22 nM | 6 nM | 66% | – | – | Cn1c(=O)c(C2CCOCC2)c2c3cc(-c4ccc(OCCCN5CCCCC5)nc4)ccc3ncn21 [Example 3, 9-(6-(3-(piperidin-1-yl)propoxy)pyridin-3-yl)-3-methyl-1-(tetrahydro-2H-pyran-4-yl)pyrazolo[1,5-c]quinazolin-2(3H)-one] | –
94% | 98% | 2.69 nM | 2.71 nM | 57% | – | – | CN(C)C1CCN(c2ccc(-c3ccc4ncn5c(c(C6CCOCC6)c(=O)n5C)c4c3)cc2F)CC1 [Example 6, 9-(4-(4-(dimethylamino)piperidin-1-yl)-3-fluorophenyl)-3-methyl-1-(tetrahydro-2H-pyran-4-yl)pyrazolo[1,5-c]quinazolin-2(3H)-one] | –
91% | 96% | 3.16 nM | 3.79 nM | 61% | – | – | CN(C)C1CCN(c2ccc(-c3ccc4ncn5c(c(C6CCOCC6)c(=O)n5C)c4c3)cc2Cl)CC1 [Example 7, 9-(3-chloro-4-(4-(dimethylamino)piperidin-1-yl)phenyl)-3-methyl-1-(tetrahydro-2H-pyran-4-yl)pyrazolo[1,5-c]quinazolin-2(3H)-one] | –
95% | 100% | 1.46 nM | 2.27 nM | 87% | – | – | CNC1CCN(c2ccc(-c3ccc4ncn5c(c(C6CCOCC6)c(=O)n5C)c4c3)cc2C(F)(F)F)CC1 [Example 10, 9-(4-(4-(methylamino)piperidin-1-yl)-3-(trifluoromethyl)phenyl)-3-methyl-1-(tetrahydro-2H-pyran-4-yl)pyrazolo[1,5-c]quinazolin-2(3H)-one] | –
– | – | – | – | – | 5.67 nM | 5.55 nM | CC(C)c1c(=O)n(C)n2cnc3ccc(-c4ccc(OCCCN(C)C)nc4)cc3c12 [Example 19, 9-(6-(3-(dimethylamino)propoxy)pyridin-3-yl)-1-isopropyl-3-methylpyrazolo[1,5-c]quinazolin-2(3H)-one] | –
– | – | – | – | – | 3.48 nM | 2.21 nM | CC(C)c1c(=O)n(C)n2cnc3ccc(-c4ccc(OCCCN5CCCCC5)nc4)cc3c12 [Example 20, 9-(6-(3-(piperidin-1-yl)propoxy)pyridin-3-yl)-1-isopropyl-3-methyl-pyrazolo[1,5-c]quinazolin-2(3H)-one] | –
– | – | – | – | – | 10.5 nM | 7.22 nM | CC(C)c1c(=O)n(C)n2cnc3ccc(-c4ccc(N5CCC(N(C)C)CC5)c(F)c4)cc3c12 [Example 21, 9-(4-(4-(dimethylamino)piperidin-1-yl)-3-fluorophenyl)-1-isopropyl-3-methylpyrazolo[1,5-c]quinazolin-2(3H)-one] | –
– | – | – | – | – | 47.6 nM | 43.8 nM | CC(C)c1c(=O)n(C)n2cnc3ccc(-c4ccc(OCCCN(C)C)c(F)c4)cc3c12 [Example 24, 9-(4-(3-(dimethylamino)propoxy)-3-fluorophenyl)-1-isopropyl-3-methylpyrazolo[1,5-c]quinazolin-2(3H)-one] | –
